“Also recorded” adds a separate entry of the source. Read-outs that look alike come from different tables or passages of the source.
Tests used:
[1] = tested on: BAEC; assay: Cell cycle progression of BAEC; type: cell-based, bovine
[2] = tested on: HUVEC; assay: HUVEC proliferation assay ([3H]-thymidine incorporation); type: cell-based, human; settings: for IC50: Homo sapiens, HUVEC
Experimental: (§1) HUVEC were purchased from Cambrex Biosciences (Walkersvilie, Md.) and maintained in EGM-2 media (Cambrex) which contains VEGF, bFGF, and EGF. LPDS were purchased from Intracell. BAEC and Hela cells were maintained in DMEM media containing 10% FBS. Jurkat cells were maintained in RPMI media containing 10% FBS. In a typical experiment 5,000-10,000 cells/well in 0.2 mL EGM-2 media were allowed to adhere for 8 h and then incubated with drug for 36 h. Cells were pulsed with 1 μCi [^3H]-thymidine for 8 h (MP Biomedicals, 6.7 Ci/mmol), and harvested using trypsin onto glass fiber filters (Wallac, Turku, Finland). The readout was performed on a Perkin Elmer MicroBeta plate reader. Cells used were under five passages.
Endothelial cells form the inner lining of all blood vessels and constitute an essential part of new as well as pre-existing blood vessels. An endothelial cell proliferation assay was utilized to screen our clinical drug library. The screen was carried out in 96-well plates with each drug at a final concentration of 10 μM. Thus, HUVEC were incubated with drugs for 36 h and proliferation was measured by following incorporation of [3H]-thymidine for the final 8 h. The preliminary screen identified 210 existing drugs with at least 50% inhibition at 10 μM, which belong to multiple drug classes (FIG. 1a).

[3] = tested on: new blood vessel formation in Matrigel plugs; assay: Mouse Matrigel model of angiogenesis; type: in vivo; settings: mice, 37.5 mg/kg i.p. once daily, Matrigel with VEGF and bFGF, 10 days
Experimental: To determine whether itraconazole inhibited angiogenesis in vivo, itraconazole was tested in a mouse Matrigel model. […] Female athymic nude 5-week old, 25-30 g mice were purchased from NO and treated in accordance with standard procedures. In all animal experiments the i.v. formulation of itraconazole was obtained from the Johns Hopkins Hospital Pharmacy. Control mice were treated with vehicle (40% hydroxypropyl-β-cyclodextrin, 2.5% propylene glycol, pH 4.5). Mice were pretreated for three days and then implanted subcutaneously with 0.5 mL of Matrigel (BD Biosciences) containing 100 ng/mL VEGF and 150 ng/mL bFGF. Drug treatment was continued daily for 10 days, mice were sacrificed, and plugs were harvested, fixed in neutral buffered formalin, and processed for histology using MAS-trichrome staining. A cross section of the entire Matrigel plug was photographed at 100× and erythrocyte-filled blood vessels were counted per field in a blinded manner. P-values comparing itraconazole versus vehicle treated mice were determined using the two-tailed Student's T-test; and the data are presented as mean±s.e.m.

[4] = tested on: BAEC; assay: BAEC proliferation with or without free cholesterol ([3H]-thymidine); type: cell-based, bovine; settings: for IC50: Bos taurus, DMEM 10% LPDS, 36 h
Experimental: BAEC were incubated in DMEM, 10% lipoprotein deficient serum (LPDS) with indicated concentrations of itraconazole (a) azalanstat (b) or TNP-470 (c) either alone or in combination with 40 μg/ml free cholesterol for 36 h. Cells were then pulsed with 1 μCi [^3H]-thymidine for 8 h before they are harvested for scintillation counting.
as §1
A hallmark of inhibitors of 14DM is that their potencies are dependent on the levels of cholesterol in cell culture medium. Thus, the potencies of both azalanstat and itraconazole in cell culture media either containing or lacking cholesterol was determined.

[5] = tested on: human foreskin fibroblasts (HFF); assay: Human foreskin fibroblast proliferation (Calcein-AM); type: cell-based; settings: 96 h with drug
Experimental: Human foreskin fibroblast (HFF) cells were cultured at passage 2 in DMEM low glucose, 10% fetal bovine serum, and 1% penicillin-streptomycin. Experiments were performed with 2,500 cells/well in 0.2 mL and incubated for 96 h with drug. Plates containing cells were washed once with PBS, incubated with 1 μM Calcein-AM (Molecular Probes) in PBS for 4 h, and read in a fluorescent plate reader. IC50 values were determined using four-parameter logarithmic analysis with GraphPad Prism and are presented as mean±s.e.m. for triplicate experiments.

[6] = tested on: HUVEC; assay: HUVEC Proliferation Assay of itraconazole stereoisomers; type: cell-based, human
Experimental: HUVEC were plated in a 96-well plate at a density of 2000 cells/well 199 μL media. After recovering overnight, cells were incubated for 24 hours with drugs added from 200×DMSO stocks. Next, cells were incubated with 0.9 μCi of [^3H]-thymidine for 6 h, washed once with PBS, trypsinized, and transferred to filtermats (Wallac) using a Mach III M Harvester 96 (Tomtec). The filtermats were then dried overnight. Using a 1450 Microbeta apparatus (Wallac), the amount of [^3H] at each position on the filtermat was determined by scintillation counting. Counts from vehicle only treated controls were used to normalize for maximum proliferation. Experiments were conducted in triplicate with multiple technical replicates for each data point. A four parameter logistic regression was used to determine IC50 values (GraphPad Prism [v4.03]).
(§2) After the quality of all stereoisomers was confirmed, the potency of each stereoisomer against HUVEC proliferation and fungal growth was determined (FIG. 7). HUVEC were incubated with drug or vehicle alone for 24 hours and then pulsed for 6 hours with [^3H]-thymidine, the incorporation of which was taken as a readout of cell proliferation. Inhibition of fungal growth was assayed by incubating five yeast strains with 2-fold serial dilutions of each stereoisomer for 30-60 hours depending on the strain, and then measuring the OD600 of the culture to quantitate growth. The minimum concentration capable of inhibiting growth by 80% (MIC80) was determined.

[7] = tested on: HUVEC; assay: HUVEC cell cycle analysis (propidium iodide, FACS); type: cell-based, human
Description: To delineate the mechanism of inhibition of endothelial cell proliferation by itraconazole, the effect on the cell cycle progression of HUVEC by fixing and staining cells with propidium iodide followed by FACS analysis was examined.

[8] = tested on: five yeast strains; assay: Fungal Susceptibility Assays (MIC80); type: cell-based, C. glabrata, C. neoformans, S. cerevisiae, C. albicans; settings: four out of five strains
Description: (§3) Pooled HUVEC and EGM-2 bullet kits were purchased from Lonza. Powdered RPMI 1640 media with L-glutamine and without sodium bicarbonate was purchased from Gibco. Amino acids, uracil, and agar were purchased from Sigma and morpholinepropanesulfonic acid (MOPS) was purchased from Fisher. Dimethyl Sulfoxide (DMSO) was purchased from J. T. Baker. C. glabrata strains BG1 (J. Infect. Dis. 1996, 173, 425-431) and BG2 (Genetics 1999, 151, 979-987), C. neoformans H99 (Am. J. Pathol. 1980, 101, 177-193), S. cerevisiae BY4741 (MATa, ura3, his3, leu2, met15), and C. albicans (ATCC 10261) were used.
Fungi were grown overnight in 5 mL YES supplemented 225 mg/L adenine, histidine, leucine, uracil, and lysine (supplemented YES) at 30° C. with shaking. […] Abs600 was measured using a plate reader (Bio-Tek Synergy HT) after vigorous shaking for 45 seconds to resuspend the cells. The background absorbance from noninoculated wells was subtracted and the absorbance of test wells was divided by that of wells treated with vehicle alone. […]
After the quality of all stereoisomers was confirmed, the potency of each stereoisomer against HUVEC proliferation and fungal growth was determined (FIG. 7). HUVEC were incubated with drug or vehicle alone for 24 hours and then pulsed for 6 hours with [^3H]-thymidine, the incorporation of which was taken as a readout of cell proliferation. […]

[9] = tested on: C. neoformans H99; assay: Fungal Susceptibility Assay (MIC80), C. neoformans; type: cell-based
Description: as §3
Fungi were grown overnight in 5 mL YES supplemented 225 mg/L adenine, histidine, leucine, uracil, and lysine (supplemented YES) at 30° C. with shaking. Cultures were diluted to 0.01 OD600 in RPMI (with L-glutamine, without sodium bicarbonate) which was supplemented with 2% glucose, 225 mg/L adenine, histidine, methionine, leucine, uracil, and lysine and buffered with 165 mM MOPS to 7.0 (complete RPMI). This solution was then further diluted 190-fold in complete RPMI in 96-well plates containing test compounds in a final volume of 150 μL. When practical, the intermediate RPMI dilution was bypassed and the overnight cultures were directly diluted to the appropriate OD600 in the RPMI solution that was added to the 96-well plates. Two-fold serial dilutions of the compounds were tested starting at 4 ug/mL with each well containing 0.125% vehicle (DMSO). The plates were incubated in a humidified environment at 30° C. with shaking for 30 hours except for experiments with C. neoformans which was incubated for 54 h. Abs600 was measured using a plate reader (Bio-Tek Synergy HT) after vigorous shaking for 45 seconds to resuspend the cells. The background absorbance from noninoculated wells was subtracted and the absorbance of test wells was divided by that of wells treated with vehicle alone. The percent of remaining growth for each drug concentration was averaged over 2-3 independent experiments, each with two technical replicates, and the minimum concentration giving 80% inhibition (MIC80) was determined.
as §2

[10] = 40 μg/ml free cholesterol, read-out: IC50, endothelial cell proliferation in the presence of cholesterol
[11] = no cholesterol, read-out: IC50, endothelial cell proliferation in the absence of cholesterol

CCC(C)n1ncn(-c2ccc(N3CCN(c4ccc(OCC5COC(Cn6cncn6)(c6ccc(Cl)cc6Cl)O5)cc4)CC3)cc2)c1=O (racemic) [Itraconazole]
percentage of cells in G1 ([1]; Cholesterol): 66.2% | percentage of cells in G2/M ([1]; Cholesterol): 12.0% | percentage of cells in S ([1]; Cholesterol): 21.2% | percentage of cells in G1 ([1]; Control (no added cholesterol)): 77.0% | percentage of cells in G2/M ([1]; Control (no added cholesterol)): 12.0% | percentage of cells in S ([1]; Control (no added cholesterol)): 10.5% | IC50 [2]: 160 nM | decrease in new blood vessel formation compared to vehicle-treated controls [3]: 67.5% | IC50 [4, 10]: 230 nM | IC50 [4, 11]: 44 nM | IC50 [5]: > 20000 nM

CCC(C)n1ncn(-c2ccc(N3CCN(c4ccc(OC[C@@H]5CO[C@@](Cn6cncn6)(c6ccc(Cl)cc6Cl)O5)cc4)CC3)cc2)c1=O (single isomer, unassigned; diastereomer 4) [4R-cis diastereomer]
fold more potent than the 4S-cis stereoisomer, HUVEC proliferation [2]: about 20 fold | IC50 [2]: 56 ± 10 nM | potency against HUVEC proliferation [6]: slightly more potent than the cis-4S isomer

CCC(C)n1ncn(-c2ccc(N3CCN(c4ccc(OC[C@H]5CO[C@](Cn6cncn6)(c6ccc(Cl)cc6Cl)O5)cc4)CC3)cc2)c1=O (single isomer, unassigned; stereoisomer 4) [4S-cis stereoisomer]
IC50 [2]: 1100 ± 130 nM | effect on HUVEC cell cycle progression [7]: potently inhibits HUVEC cell cycle progression at the G1/S transition

Nc1ccc(SC[C@@H]2CO[C@](CCc3ccc(Cl)cc3)(Cn3ccnc3)O2)cc1 [Azalanstat]
percentage of cells in G1 ([1]; Cholesterol): 70.2% | percentage of cells in G2/M ([1]; Cholesterol): 10.0% | percentage of cells in S ([1]; Cholesterol): 19.4% | percentage of cells in G1 ([1]; Control (no added cholesterol)): 74.5% | percentage of cells in G2/M ([1]; Control (no added cholesterol)): 8.8% | percentage of cells in S ([1]; Control (no added cholesterol)): 16.8% | IC50 [4, 10]: 1200 nM | IC50 [4, 11]: 310 nM | effect on HUVEC cell cycle progression [7]: blocked the cell cycle progression

CC[C@H](C)n1ncn(-c2ccc(N3CCN(c4ccc(OC[C@@H]5CO[C@@](Cn6cncn6)(c6ccc(Cl)cc6Cl)O5)cc4)CC3)cc2)c1=O [Compound 23a, 4-(4-(4-(4-(((2S,4R)-2-((1H-1,2,4-triazol-1-yl)methyl)-2-(2,4-dichlorophenyl)-1,3-dioxolan-4-yl)methoxy)phenyl)piperazin-1-yl)phenyl)-1-((S)-sec-butyl)-1H-1,2,4-triazol-5(4H)-one]
potency against HUVEC proliferation [6]: greatest antiangiogenic potential | difference in potency between 23a and 23f (most and least potent), HUVEC proliferation ([6]; 24 h with drug): greater than 4 fold

CC[C@@H](C)n1ncn(-c2ccc(N3CCN(c4ccc(OC[C@@H]5CO[C@@](Cn6cncn6)(c6ccc(Cl)cc6Cl)O5)cc4)CC3)cc2)c1=O [Compound 23b, 4-(4-(4-(4-(((2S,4R)-2-((1H-1,2,4-triazol-1-yl)methyl)-2-(2,4-dichlorophenyl)-1,3-dioxolan-4-yl)methoxy)phenyl)piperazin-1-yl)phenyl)-1-((R)-sec-butyl)-1H-1,2,4-triazol-5(4H)-one]
potency against HUVEC proliferation [6]: greatest antiangiogenic potential

CC[C@H](C)n1ncn(-c2ccc(N3CCN(c4ccc(OC[C@H]5CO[C@@](Cn6cncn6)(c6ccc(Cl)cc6Cl)O5)cc4)CC3)cc2)c1=O [Compound 23e, 4-(4-(4-(4-(((2S,4S)-2-((1H-1,2,4-triazol-1-yl)methyl)-2-(2,4-dichlorophenyl)-1,3-dioxolan-4-yl)methoxy)phenyl)piperazin-1-yl)phenyl)-1-((S)-sec-butyl)-1H-1,2,4-triazol-5(4H)-one]
antifungal potency [8]: roughly as potent as the cis-diastereomers; also recorded: about as potent as the cis diastereomers | fold less potent than 23g and 23h [9]: 2 fold | fold less potent than the best inhibitor [9]: 32 fold

CC[C@@H](C)n1ncn(-c2ccc(N3CCN(c4ccc(OC[C@H]5CO[C@@](Cn6cncn6)(c6ccc(Cl)cc6Cl)O5)cc4)CC3)cc2)c1=O [Compound 23f, 4-(4-(4-(4-(((2S,4S)-2-((1H-1,2,4-triazol-1-yl)methyl)-2-(2,4-dichlorophenyl)-1,3-dioxolan-4-yl)methoxy)phenyl)piperazin-1-yl)phenyl)-1-((R)-sec-butyl)-1H-1,2,4-triazol-5(4H)-one]
antifungal potency [8]: roughly as potent as the cis-diastereomers; also recorded: about as potent as the cis diastereomers | fold less potent than 23g and 23h [9]: 2 fold | fold less potent than the best inhibitor [9]: 32 fold

CO[C@@H]1[C@H](OC(=O)NC(=O)CCl)CC[C@]2(CO2)[C@H]1[C@@]1(C)O[C@@H]1CC=C(C)C [TNP-470]
potency on endothelial cell proliferation in absence versus presence of cholesterol ([4]; with or without 40 μg/ml free cholesterol): roughly equal potency
